In patent EP4803511A1, “SMALL MOLECULE COMPOUND HAVING SULFONIC ACID OR SULFINIC ACID LACTONE STRUCTURE, COMPOSITION AND USE THEREOF” (Hangzhou Phecdamed Co., Ltd., priority 2023, dated 2025):

Experiments:
[1] = tested on: HaCaT cells; assay: ROS content / ROS scavenging rate in HaCaT after UVB radiation (DCFH-DA); format: cell-based, human; conditions: for ROS scavenging rate: HaCaT cells after UVB radiation
Source text: Oxidative reactions such as respiration and metabolism in organisms generate reactive free radicals. Under normal bodily conditions, free radicals have a stable scavenging system, so that the free radical content of the body is kept at a relatively low concentration. Oxidative stress (OS) refers to an imbalance between oxidation and antioxidation in the body due to endogenous and/or exogenous stimuli, resulting in excessive free radical production. Excessive free radicals produce a series of negative effects in the body, including oxidative damage to biomolecules and further causing cell death and tissue damage, etc. In organisms, almost all ROS, except for trace amounts utilized by the body, should be promptly scavenged. Medium Wave Erythema Effect Ultraviolet (UVB) (280-319 nm) radiation damage is the most important factor leading to photoaging of the skin, primarily damaging keratinocytes (HaCaT), specifically manifested as the accumulation of photoproducts, increased ROS, and exacerbated oxidative damage, etc. Over long periods of evolution, organisms have developed a complete antioxidant system, maintaining a dynamic balance between the production and elimination of free radicals. This is an adaptive mechanism of organisms, and the main members include antioxidant enzymes, antioxidants, and proteins that separate transition metals, all of which can specifically limit oxidative damage to the body. Therefore, the antioxidant efficacy of a test compound can be evaluated by detecting the ROS scavenging rate in keratinocytes after UVB radiation.
• 1) Cell inoculation: HaCaT cells were inoculated into a 96-well plate at 2 × 10^4/well, cultured in an incubator (37 °C, 5% CO2) for 12 hrs, and a control group (120 mJ/cm^2 + vehicle control), a low concentration group (120 mJ/cm^2 + low concentration compound), a medium concentration group (120 mJ/cm^2 + medium concentration compound), and a high concentration group (120 mJ/cm^2 + high concentration compound) were respectively provided. • 2) UVB modeling: The HaCaT cells were washed 3 times with D'Hanks before UVB radiation, 50 µL of D'Hanks was added into the wells, to make the cells to be immersed, and the control group was coated with tinfoil and placed in the dark. For the test groups, UVB modeling was performed on the group requiring radiation, respectively. • 3) Administration: DMEM medium containing different concentrations of compound were added to each test group for continued culture for 24 hrs. • 4) Transferring the ROS fluorescent probe: DCFH-DA was Diluted to a final concentration of 10 µmol/L using PBS at a dilution ratio of 1:1000. The culture medium in all wells except the bare cell wells was discarded. After washing three times with PBS, 200 µL of DCFH-DA working solution was added to each well, then incubated in a CO2 incubator for 30 min, and after incubation, the cells in each well were washed with PBS for 3 times. • 5) Fluorescence analysis. The 96-well plate to be tested was placed on the detection stage of the fluorescence microplate reader, with the […] set to 525 nm, the excitation light wavelength set to 488 nm, and the reading was analyzed.
ROS scavenging rate (%) = (S(Modelcontrolgroup)−S(Samplegroup))/(S(Modelcontrolgroup)) × 100% [formula] wherein S is fluorescence intensity.

[2] = tested on: type I collagen; assay: Type I collagen expression in HSF human skin fibroblasts (ELISA); format: cell-based; conditions: 24 hrs, dose-dependent
Source text: Skin fragility is partly attributed to changes in hemidesmosomes and the expression downregulation of various collagen proteins (Collagen I, III, IV, VII) or laminins (such as LN-5) at the dermal-epidermal junction. LN-5 has been proven to be a component of anchoring fibers in the basement membrane of the skin, cornea, conjunctiva, and other tissues. LN-5 participates in cell-cell interactions through the mediation of integrins and proteoglycans, thereby playing a crucial role in cell adhesion, growth, migration, and differentiation. The appearance of wrinkles is closely related to the normal synthesis and expression of collagen and laminins. Therefore, the increase of the above collagen content and LN-5 can achieve a certain role in resisting wrinkles, and plays an important role in the aging process of the skin. Therefore, the anti-wrinkle effect of the compound to be tested was evaluated by detecting the level of Collage I protein of […] by ELISA, and detecting the transcription levels of epidermal cells (keratinocytes) III, IV, VII and LN -5 by Real-Time PCR. The following Test Examples 8-1 and 8-2 evaluated the anti-wrinkle efficacy of compounds using HaCaT human immortalized keratinocytes and HSF human skin fibroblasts. […]

O=S1(=O)Oc2cc(O)ccc2-c2ccc(O)cc21 [Compound I-8]
ROS content in HaCaT after UVB radiation ([1]; HaCaT, UVB 120 mJ/cm^2, 24 hrs, low, medium, high concentration): scavenging ROS in a dose-dependent manner
ROS scavenging rate ([1]; content 0.00015625%): 12%
ROS scavenging rate ([1]; content 0.000625%): 22%
ROS scavenging rate ([1]; content 0.0025%): 26%
secretion of type I collagen [2]: improving the secretion of type I collagen
